Reference: PubChem BioAssay AID1963837 (Molecular Pharmacology Branch, DTP, NCI, 2024)
Where “and” joins values, the source holds several entries; their conditions need not be identical. Equal entries are not always repeated.

Test system: 843126-344-R-J1-PDC complex spheroid viability
Experiment: Anticancer human tumor 843126-344-R-J1-PDC patient-derived melanoma cell line growth inhibition [POLQ]
Details: for viability, T/C: stronger effect = lower value
Procedure: Multicellular complex tumor spheroid response to Polymerase (POL) inhibitors (novobiocin, ART-558, RP6685) in combination with a variety of drugs and investigational agents in selected tumor cell lines
The POL inhibitors (novobiocin, ART-558, and RP6685) were evaluated both individually and in combination with standard of care and investigational anticancer small molecules within a complex spheroid model of solid tumors. . Complex spheroids include a stromal component modeled by human endothelial cells (HUVEC) and fibroblasts modeled by human mesenchymal stem cells (MSCs). The concentration ranges selected for each drug and investigational agent were based upon clinically achievable concentrations if the clinical Cmax of the agent was known.
Compounds. The drugs and investigational agents: novobiocin (NSC847541), ART-558 (NSC835418), RP-6685 (NSC848927), peposertib (NSC802822), ceralasertib (NSC780249), elimusertib (NSC800525), camonsertib (NSC841442), AZD-1390 (NSC803789), olaparib (NSC753686), talazoparib (NSC767125), rucaparib (NSC756644), sotorasib (NSC818433), MRTX-1133 (NSC836407), SN-38 (NSC673596), topotecan (NSC609699), epotoside (NSC141540), doxorubicin (NSC123127), gemcitabine (NSC613327), 5-fluorouracil (NSC19893), paclitaxel (NSC125973), vemurafenib (NSC761431), MSA-2 (NSC828583), SN-011 (NSC837082), adavosertib (NSC754352), prexasertib (NSC758257), carboplatin (NSC241240) and oxaliplatin (NSC266046), were obtained from the National Cancer Institute (NCI) Developmental Therapeutics Program Chemical Repository (21). The FDA-approved anticancer drug set is available from the Developmental Therapeutics Program at https://dtp.cancer.gov/organization/dscb/obtaining/. […] The stock solutions were prepared in dimethyl sulfoxide (DMSO, Sigma-Aldrich, St. Louis, MO, cat. D2650), except for the platinum compounds which were prepared in saline (Quality Biological, Gaithersburg, MD, cat. 114-055-101), at 800-fold the tested concentration and stored at -70 degrees C prior to their use. All drugs and investigational agents were tested over a range starting from a high concentration at or near the clinical Cmax and decreasing in half-log increments. If the clinical Cmax for an agent had not been determined, the highest concentration tested was 10 microM, except for SN-38, which was tested at a high concentration of 1 microM.
Cell Culture. All cells were maintained in an incubator at 37 degrees C and 5% CO2 with 95% humidity. The PDC lines were cultured according to standard operating procedures established by the NCI PDMR (https://pdmr.cancer.gov). Table 3 of the manuscript, lists the cell lines along with the number of the three cell types plated to form the mct-spheroids and media for tumor cell growth. After thawing, all PDC lines, except 997537-175-T-J1-PDC and 415267-285-R-J2-PDC, were cultured in Matrigel-coated flasks prepared with a working solution of 1X Ham's F-12 nutrient mix, without supplementation (Thermo Fisher Scientific, cat. 11765054), 100 U/mL penicillin-streptomycin (Thermo Fisher Scientific, cat. 15140122), and 2.5% Matrigel (Corning Inc., Corning, NY, cat. 354248) for the first three passages. The two PDC lines 997537-175-T-J1-PDC and 415267-285-R-J2-PDC were cultured on uncoated flasks. The 857933-349-R-J2-PDC line was cultured in 6C/Colon 1B media containing advanced DMEM/F-12 (Thermo Fisher Scientific, cat. 12634028), 10 mM HEPES (Thermo Fisher Scientific, cat. 15630080), 1X GlutaMAX supplement (Thermo Fisher Scientific, cat. 35050061), 0.1 mg/mL primocin (InvivoGen, San Diego, CA, cat. ant-pm-2), 10% defined fetal bovine serum, heat inactivated (HyClone Laboratories Inc., Logan, UT, cat. SH30070.03HI), 50% L-WRN conditioned media (ATCC, cat. CRL-3276), 1.25 mM N-Acetyl-L-cysteine (Sigma-Aldrich, cat. A9165), 10 mM nicotinamide (Sigma-Aldrich, cat. N0636), 1X B-27 supplement (Thermo Fisher Scientific, cat. 17504044), 1X N-2 supplement (Thermo Fisher Scientific, cat. […]
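Throughout, for viability, T/C: spheroids exposed to drugs for seven days before readout.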

C=CC(=O)N1CCN(c2nc(=O)n(-c3c(C)ccnc3C(C)C)c3nc(-c4c(O)cccc4F)c(F)cc23)C(C)C1 (stereo unspecified) was tested. Which viability, T/C (compound 0.0316 µM) did it give?
Its viability, T/C is 96.7% and 98.3% and 89.5%.

What about the viability, T/C (compound 0.1 µM) of the same molecule?
The viability, T/C was 85.1% and 110% and 73.2%.

What about the viability, T/C (compound 0.316 µM) of the same molecule?
The viability, T/C was 104% and 107% and 95.8%.

What about the viability, T/C (compound 1 µM) of the same molecule?
Its viability, T/C is 104% and 85.4% and 106%.

What about the viability, T/C (compound 3.16 µM) of the same molecule?
The viability, T/C was 92.8% and 96.1% and 113%.

And the viability, T/C (compound 10 µM)?
The viability, T/C was 67.2% and 91% and 79.3%.

And the IC50 (curve of compound)?
Its IC50 is over 10000 nM.

For C#Cc1c(F)ccc2cc(O)cc(-c3ncc4c(N5CC6CCC(C5)N6)nc(OCC56CCCN5CC(F)C6)nc4c3F)c12 (stereo unspecified), which viability, T/C (compound 0.0316 µM) is on record?
The viability, T/C was 90.2% and 115% and 80.5%.

What about the viability, T/C (compound 0.1 µM) of the same molecule?
The viability, T/C was 116% and 88.3% and 91.5%.

And the viability, T/C (compound 0.316 µM)?
Its viability, T/C is 96.1% and 97.6% and 95.8%.

What about the viability, T/C (compound 1 µM) of the same molecule?
The viability, T/C was 78.2% and 100% and 82.2%.

And the viability, T/C (compound 3.16 µM)?
Its viability, T/C is 95.1% and 96.5% and 95.2%.

And the viability, T/C (compound 10 µM)?
Its viability, T/C is 87.4% and 85.2% and 85.5%.

And the IC50 (curve of compound)?
Its IC50 is over 10000 nM.

Which results are given for Cn1ncnc1[C@H]1c2n[nH]c(=O)c3cc(F)cc(c23)N[C@@H]1c1ccc(F)cc1 + Cc1cccc(N(C)C(=O)C2C(O)CCN2c2nc(C)cc(C(F)(F)F)c2C#N)c1?
IC50 (curve of first compound, second compound 0.0316 µM): > 100 nM; IC50 (curve of first compound, second compound 0.1 µM): > 100 nM; IC50 (curve of first compound, second compound 0.316 µM): > 100 nM; IC50 (curve of first compound, second compound 1 µM): > 100 nM; IC50 (curve of first compound, second compound 3.16 µM): > 100 nM; IC50 (curve of first compound, second compound 10 µM): > 100 nM; viability, T/C (second compound 0.0316 µM, first compound 0.000316 µM): 83.1%; viability, T/C (second compound 0.0316 µM, first compound 0.001 µM): 80%; viability, T/C (second compound 0.0316 µM, first compound 0.00316 µM): 92.3%; viability, T/C (second compound 0.0316 µM, first compound 0.01 µM): 74.1%; viability, T/C (second compound 0.0316 µM, first compound 0.0316 µM): 91.9%; viability, T/C (second compound 0.0316 µM, first compound 0.1 µM): 71.8%; viability, T/C (second compound 0.1 µM, first compound 0.000316 µM): 94.8%; viability, T/C (second compound 0.1 µM, first compound 0.001 µM): 91.6%; viability, T/C (second compound 0.1 µM, first compound 0.00316 µM): 96.6%; viability, T/C (second compound 0.1 µM, first compound 0.01 µM): 73%; viability, T/C (second compound 0.1 µM, first compound 0.0316 µM): 88.7%; viability, T/C (second compound 0.1 µM, first compound 0.1 µM): 66%; viability, T/C (second compound 0.316 µM, first compound 0.000316 µM): 82.8%; viability, T/C (second compound 0.316 µM, first compound 0.001 µM): 82.5%; viability, T/C (second compound 0.316 µM, first compound 0.00316 µM): 89.5%; viability, T/C (second compound 0.316 µM, first compound 0.01 µM): 86.3%; viability, T/C (second compound 0.316 µM, first compound 0.0316 µM): 88.7%; viability, T/C (second compound 0.316 µM, first compound 0.1 µM): 86.5%; viability, T/C (second compound 1 µM, first compound 0.000316 µM): 73.2%; viability, T/C (second compound 1 µM, first compound 0.001 µM): 67.6%; viability, T/C (second compound 1 µM, first compound 0.00316 µM): 92.6%; viability, T/C (second compound 1 µM, first compound 0.01 µM): 86.8%; viability, T/C (second compound 1 µM, first compound 0.0316 µM): 76.4%; viability, T/C (second compound 1 µM, first compound 0.1 µM): 78.6%; viability, T/C (second compound 3.16 µM, first compound 0.000316 µM): 67.4%; viability, T/C (second compound 3.16 µM, first compound 0.001 µM): 78.7%; viability, T/C (second compound 3.16 µM, first compound 0.00316 µM): 88.9%; viability, T/C (second compound 3.16 µM, first compound 0.01 µM): 77.6%; viability, T/C (second compound 3.16 µM, first compound 0.0316 µM): 87.5%; viability, T/C (second compound 3.16 µM, first compound 0.1 µM): 67.3%; viability, T/C (second compound 10 µM, first compound 0.000316 µM): 76.3%; viability, T/C (second compound 10 µM, first compound 0.001 µM): 87.8%; viability, T/C (second compound 10 µM, first compound 0.00316 µM): 84.2%; viability, T/C (second compound 10 µM, first compound 0.01 µM): 77.4%; viability, T/C (second compound 10 µM, first compound 0.0316 µM): 86.2%; viability, T/C (second compound 10 µM, first compound 0.1 µM): 79.9%
